# Assay results published in the NIST ThermoML archive (doi:10.1021/acs.jced.5b00474).
# Numbers after ± are expanded uncertainties.
# Assay: xn = mol fraction of the nth substance listed
# Settings: 101 kPa, Liquid; for speed of sound: Frequency=3 MHz, Sing-around technique in a fixed-path interferometer; for mass density: Vibrating tube method
smiles,measurement,setting,value
ClC(Cl)Cl [trichloromethane] + CN1CCCC1=O,speed of sound,"293.14 K, x2 = 0.1079",1051.6 ± 0.8 m/s
same,mass density,"293.14 K, x2 = 0.1079",1437.79 ± 0.56 kg/m3
same,speed of sound,"293.15 K, x2 = 0",1000.9 ± 0.78 m/s
same,speed of sound,"293.15 K, x2 = 0.1061",1050 ± 0.79 m/s
same,speed of sound,"293.15 K, x2 = 0.2054",1098.6 ± 0.81 m/s
same,speed of sound,"293.15 K, x2 = 0.2994",1146 ± 0.81 m/s
same,speed of sound,"293.15 K, x2 = 0.4032",1198.4 ± 0.84 m/s
same,speed of sound,"293.15 K, x2 = 0.4961",1248.4 ± 0.85 m/s
same,speed of sound,"293.15 K, x2 = 0.6006",1307.8 ± 0.87 m/s
same,speed of sound,"293.15 K, x2 = 0.6854",1359.8 ± 0.88 m/s
same,speed of sound,"293.15 K, x2 = 0.7986",1430.8 ± 0.92 m/s
same,mass density,"293.15 K, x2 = 0",1488.55 ± 0.57 kg/m3
same,mass density,"293.15 K, x2 = 0.1061",1438.96 ± 0.56 kg/m3
same,mass density,"293.15 K, x2 = 0.2054",1390.74 ± 0.55 kg/m3
same,mass density,"293.15 K, x2 = 0.2994",1345.24 ± 0.54 kg/m3
same,mass density,"293.15 K, x2 = 0.4032",1294.06 ± 0.54 kg/m3
same,mass density,"293.15 K, x2 = 0.4961",1249.81 ± 0.53 kg/m3
same,mass density,"293.15 K, x2 = 0.6006",1201.33 ± 0.53 kg/m3
same,mass density,"293.15 K, x2 = 0.6854",1163.12 ± 0.52 kg/m3
same,mass density,"293.15 K, x2 = 0.7986",1114.37 ± 0.52 kg/m3
same,speed of sound,"298.14 K, x2 = 0.1079",1034.9 ± 0.79 m/s
same,speed of sound,"298.14 K, x2 = 0.2994",1130.2 ± 0.81 m/s
same,speed of sound,"298.14 K, x2 = 0.7986",1413 ± 0.9 m/s
same,mass density,"298.14 K, x2 = 0.1079",1429.34 ± 0.56 kg/m3
same,mass density,"298.14 K, x2 = 0.2994",1338.24 ± 0.54 kg/m3
same,mass density,"298.14 K, x2 = 0.7986",1109.43 ± 0.52 kg/m3
same,speed of sound,"298.15 K, x2 = 0",984.33 ± 0.78 m/s
same,speed of sound,"298.15 K, x2 = 0.2054",1082.1 ± 0.81 m/s
same,speed of sound,"298.15 K, x2 = 0.4032",1181.9 ± 0.83 m/s
same,speed of sound,"298.15 K, x2 = 0.4961",1231.9 ± 0.84 m/s
same,speed of sound,"298.15 K, x2 = 0.6006",1290.7 ± 0.86 m/s
same,speed of sound,"298.15 K, x2 = 0.6854",1342.1 ± 0.88 m/s
same,mass density,"298.15 K, x2 = 0",1479.07 ± 0.57 kg/m3
same,mass density,"298.15 K, x2 = 0.2054",1383.07 ± 0.55 kg/m3
same,mass density,"298.15 K, x2 = 0.4032",1287.66 ± 0.54 kg/m3
same,mass density,"298.15 K, x2 = 0.4961",1243.85 ± 0.53 kg/m3
same,mass density,"298.15 K, x2 = 0.6006",1195.78 ± 0.52 kg/m3
same,mass density,"298.15 K, x2 = 0.6854",1157.85 ± 0.52 kg/m3
same,speed of sound,"298.16 K, x2 = 0.1061",1033.6 ± 0.79 m/s
same,mass density,"298.16 K, x2 = 0.1061",1430.5 ± 0.56 kg/m3
same,speed of sound,"303.14 K, x2 = 0.1079",1018.3 ± 0.8 m/s
same,speed of sound,"303.14 K, x2 = 0.2994",1114.1 ± 0.81 m/s
same,speed of sound,"303.14 K, x2 = 0.7986",1395.1 ± 0.89 m/s
same,mass density,"303.14 K, x2 = 0.1079",1420.85 ± 0.56 kg/m3
same,mass density,"303.14 K, x2 = 0.2994",1331.2 ± 0.54 kg/m3
same,mass density,"303.14 K, x2 = 0.7986",1104.48 ± 0.52 kg/m3
same,speed of sound,"303.15 K, x2 = 0.1061",1016.3 ± 0.8 m/s
same,speed of sound,"303.15 K, x2 = 0.2054",1065.2 ± 0.8 m/s
same,speed of sound,"303.15 K, x2 = 0.4032",1165.2 ± 0.83 m/s
same,speed of sound,"303.15 K, x2 = 0.4961",1215.2 ± 0.84 m/s
same,speed of sound,"303.15 K, x2 = 0.6006",1273.5 ± 0.86 m/s
same,speed of sound,"303.15 K, x2 = 0.6854",1324.2 ± 0.87 m/s
same,mass density,"303.15 K, x2 = 0.1061",1422 ± 0.56 kg/m3
same,mass density,"303.15 K, x2 = 0.2054",1375.36 ± 0.55 kg/m3
same,mass density,"303.15 K, x2 = 0.4032",1281.24 ± 0.54 kg/m3
same,mass density,"303.15 K, x2 = 0.4961",1237.89 ± 0.53 kg/m3
same,mass density,"303.15 K, x2 = 0.6006",1190.22 ± 0.52 kg/m3
same,mass density,"303.15 K, x2 = 0.6854",1152.57 ± 0.52 kg/m3
same,speed of sound,"303.16 K, x2 = 0",967.53 ± 0.78 m/s
same,mass density,"303.16 K, x2 = 0",1469.52 ± 0.57 kg/m3
same,speed of sound,"308.14 K, x2 = 0.1079",1001.8 ± 0.78 m/s
same,speed of sound,"308.14 K, x2 = 0.2994",1098.1 ± 0.82 m/s
same,speed of sound,"308.14 K, x2 = 0.7986",1377.3 ± 0.88 m/s
same,mass density,"308.14 K, x2 = 0.1079",1412.32 ± 0.56 kg/m3
same,mass density,"308.14 K, x2 = 0.2994",1324.14 ± 0.54 kg/m3
same,mass density,"308.14 K, x2 = 0.7986",1099.52 ± 0.51 kg/m3
same,speed of sound,"308.15 K, x2 = 0",950.62 ± 0.78 m/s
same,speed of sound,"308.15 K, x2 = 0.1061",999.25 ± 0.8 m/s
same,speed of sound,"308.15 K, x2 = 0.2054",1048.3 ± 0.79 m/s
same,speed of sound,"308.15 K, x2 = 0.4032",1148.5 ± 0.81 m/s
same,speed of sound,"308.15 K, x2 = 0.4961",1198.6 ± 0.83 m/s
same,speed of sound,"308.15 K, x2 = 0.6006",1256.3 ± 0.84 m/s
same,speed of sound,"308.15 K, x2 = 0.6854",1306.2 ± 0.86 m/s
same,mass density,"308.15 K, x2 = 0",1459.91 ± 0.57 kg/m3
same,mass density,"308.15 K, x2 = 0.1061",1413.45 ± 0.56 kg/m3
same,mass density,"308.15 K, x2 = 0.2054",1367.63 ± 0.55 kg/m3
same,mass density,"308.15 K, x2 = 0.4032",1274.79 ± 0.53 kg/m3
same,mass density,"308.15 K, x2 = 0.4961",1231.6 ± 0.53 kg/m3
same,mass density,"308.15 K, x2 = 0.6006",1184.64 ± 0.52 kg/m3
same,mass density,"308.15 K, x2 = 0.6854",1147.28 ± 0.52 kg/m3
